Laboratory results reported in ChEMBL document CHEMBL3102853, “Carbonic anhydrase inhibitors. Synthesis, and molecular structure of novel series N-substituted N'-(2-arylmethylthio-4-chloro-5-methylbenzenesulfonyl)guanidines and their inhibition of human cytosolic isozymes I and II and the transmembrane tumor-associated isozymes IX and XII” (Eur J Med Chem, 2014).
Activity calls are given as the source filed them. The rule behind the calls is not given here.

Legend:
Type in all cases: functional
[1] = test system: MOLT-4; assay: Cytotoxicity against human MOLT4 cells at 10 uM; conditions: read-out: GI
[2] = test system: SNB-75; assay: Cytotoxicity against human SNB75 cells at 10 uM; conditions: read-out: GI
[3] = test system: HOP-92; assay: Cytotoxicity against human HOP92 cells at 10 uM; conditions: read-out: GI
[4] = test system: K562; assay: Cytotoxicity against human K562 cells at 10 uM; conditions: read-out: GI
[5] = test system: SF-268; assay: Cytotoxicity against human SF268 cells at 10 uM; conditions: read-out: GI
[6] = test system: SR; assay: Cytotoxicity against human SR cells at 10 uM; conditions: read-out: GI
[7] = test system: SK-MEL-2; assay: Cytotoxicity against human SK-MEL-2 cells at 10 uM; conditions: read-out: GI
[8] = test system: A498; assay: Cytotoxicity against human A498 cells at 10 uM; conditions: read-out: GI
[9] = test system: PC-3; assay: Cytotoxicity against human PC3 cells at 10 uM; conditions: read-out: GI
[10] = Cytotoxicity against human Hs 578T cells at 10 uM; conditions: read-out: GI
[11] = test system: DU-145; assay: Cytotoxicity against human DU145 cells at 10 uM
[12] = test system: RPMI-8226; assay: Cytotoxicity against human RPMI8226 cells at 10 uM; conditions: read-out: GI
[13] = test system: A549; assay: Cytotoxicity against human A549 cells at 10 uM; conditions: read-out: GI
[14] = test system: SW-620; assay: Cytotoxicity against human SW620 cells at 10 uM; conditions: read-out: GI
[15] = test system: HL-60(TB); assay: Cytotoxicity against human HL-60(TB) cells at 10 uM; conditions: read-out: GI
[16] = test system: MDA-MB-468; assay: Cytotoxicity against human MDA-MB-468 cells at 10 uM; conditions: read-out: GI
[17] = test system: NCI/ADR-RES; assay: Cytotoxicity against human NCI-ADR-RES cells at 10 uM
[18] = test system: KM12; assay: Cytotoxicity against human KM12 cells at 10 uM; conditions: read-out: GI
[19] = test system: NCI-H460; assay: Cytotoxicity against human NCI-H460 cells at 10 uM; conditions: read-out: GI
[20] = test system: T47D; assay: Cytotoxicity against human T47D cells at 10 uM; conditions: read-out: GI
[21] = test system: HT-29; assay: Cytotoxicity against human HT-29 cells at 10 uM
[22] = test system: UACC-62; assay: Cytotoxicity against human UACC62 cells at 10 uM; conditions: read-out: GI
[23] = test system: OVCAR-3; assay: Cytotoxicity against human OVCAR3 cells at 10 uM; conditions: read-out: GI
[24] = test system: MCF7; assay: Cytotoxicity against human MCF7 cells at 10 uM; conditions: read-out: GI
[25] = test system: LOX IMVI; assay: Cytotoxicity against human LOXIMVI cells at 10 uM; conditions: read-out: GI

Cc1cc(S(=O)(=O)NC(=N)NCc2ccc(S(N)(=O)=O)cc2)c(SCc2ccccc2)cc1Cl showed an inhibition of growth at 10 µM [1] of 31%, an inhibition of growth at 10 µM [2] of 43% and an inhibition of growth at 10 µM [3] of 63%. For the same compound, the inhibition of growth at 10 µM [4] was 34%, the inhibition of growth at 10 µM [5] was 16% and the inhibition of growth at 10 µM [6] was 29%. The inhibition of growth at 10 µM [7] was 32%, the inhibition of growth at 10 µM [8] was 25% and the inhibition of growth at 10 µM [9] was 36%. The inhibition of growth at 10 µM [10] was 44%, the “growth inhibition (GI)” value [11] was “inactive” and the inhibition of growth at 10 µM [12] was 41%. It also gave an inhibition of growth at 10 µM [13] of 21%, an inhibition of growth at 10 µM [14] of 4% and an inhibition of growth at 10 µM [15] of 28%. The inhibition of growth at 10 µM [16] was 45%, the “growth inhibition (GI)” value [17] was “inactive” and the inhibition of growth at 10 µM [18] was 16%. The inhibition of growth at 10 µM [19] was 10%, the inhibition of growth at 10 µM [20] was 35% and the “growth inhibition (GI)” value [21] was “inactive”. For the same compound, the inhibition of growth at 10 µM [22] was 49%, the inhibition of growth at 10 µM [23] was 24% and the inhibition of growth at 10 µM [24] was 37%. For the same compound, the inhibition of growth at 10 µM [25] was 12%.

Cc1cc(S(=O)(=O)NC(=N)NCc2ccc(S(N)(=O)=O)cc2)c(SCc2cc3c(cc2Cl)OCO3)cc1Cl showed an inhibition of growth at 10 µM [1] of 50%, an inhibition of growth at 10 µM [2] of 42% and an inhibition of growth at 10 µM [3] of 57%. For the same compound, the inhibition of growth at 10 µM [4] was 57%, the inhibition of growth at 10 µM [5] was 28% and the inhibition of growth at 10 µM [6] was 50%. For the same compound, the inhibition of growth at 10 µM [7] was 38%, the inhibition of growth at 10 µM [8] was 10% and the inhibition of growth at 10 µM [9] was 54%. The inhibition of growth at 10 µM [10] was 29%, the inhibition of growth at 10 µM ([11]; read-out: GI) was 2% and the inhibition of growth at 10 µM [12] was 57%. The inhibition of growth at 10 µM [13] was 30%, the inhibition of growth at 10 µM [14] was 8% and the inhibition of growth at 10 µM [15] was 58%. The inhibition of growth at 10 µM [16] was 62%, the “growth inhibition (GI)” value [17] was “inactive” and the inhibition of growth at 10 µM [18] was 38%. For the same compound, the inhibition of growth at 10 µM [19] was 20%, the inhibition of growth at 10 µM [20] was 48% and the inhibition of growth at 10 µM ([21]; read-out: GI) was 15%. For the same compound, the inhibition of growth at 10 µM [22] was 56%, the inhibition of growth at 10 µM [23] was 41% and the inhibition of growth at 10 µM [24] was 60%. It also gave an inhibition of growth at 10 µM [25] of 28%.
